Assay results published in ChEMBL document CHEMBL5226349, “Novel Antimicrobial 8-Hydroxyquinoline-Based Agents: Current Development, Structure-Activity Relationships, and Perspectives” (J Med Chem, 2021).
In brackets after ≈: the same amount, converted by molar mass.

Key:
[1] = system: Mycobacterium tuberculosis; assay: Antibacterial activity against Mycobacterium tuberculosis; format: functional
[2] = system: Candida albicans; assay: Antifungal activity against Candida albicans; format: functional
[3] = Inhibition of Mycobacterium tuberculosis FBA
[4] = Inhibition of Mycobacterium tuberculosis Zmp1
[5] = Inhibition of Mycobacterium tuberculosis MetAP1c
[6] = system: Mycobacterium tuberculosis; assay: Antibacterial activity against aged non-growing Mycobacterium tuberculosis; format: functional
[7] = molecular target: Methionine aminopeptidase 2 (Homo sapiens, UniProt P50579); assay: Inhibition of human MetAP2
[8] = Inhibition of Mycobacterium tuberculosis MetAP1a
[9] = molecular target: Methionine aminopeptidase 1 (Homo sapiens, UniProt P53582); assay: Inhibition of human MetAP1
[10] = system: Chlamydia; assay: Antibacterial activity against Chlamydia; format: functional
[11] = molecular target: Botulinum neurotoxin type F (Clostridium botulinum, UniProt P30996); assay: Inhibition of Botulinum neurotoxins/F
[12] = system: Nakaseomyces glabratus; assay: Antifungal activity against Candida glabrata; format: functional
[13] = Inhibition of bacterial New Delhi metallo-beta-lactamase 1; design: species or system Bacteria
[14] = Inhibition of bacterial VIM-2; design: species or system Bacteria
[15] = Cytotoxicity against human HeLa cells; format: toxicity, cell-based
[16] = system: Enterococcus; assay: Antibiofilm activity against vancomycin-resistant Enterococcus; format: functional
[17] = system: Staphylococcus aureus; assay: Antibiofilm activity against methicillin-resistant Staphylococcus aureus; format: functional
[18] = system: Staphylococcus epidermidis; assay: Antibiofilm activity against methicillin-resistant Staphylococcus epidermidis; format: functional
[19] = Inhibition of Aeromonas proteolytica aminopeptidase; design: species or system Vibrio proteolyticus
[20] = Inhibition of human zinc metalloprotease
[21] = system: Aspergillus; assay: Antifungal activity against Aspergillus; format: functional
[22] = system: Trichophyton; assay: Antifungal activity against Trichophyton; format: functional
[23] = system: Microsporum; assay: Antifungal activity against Microsporum; format: functional
[24] = molecular target: Botulinum neurotoxin type A (Clostridium botulinum, UniProt P0DPI0); assay: Inhibition of Botulinum neurotoxins/A
Sequence of Botulinum neurotoxin type A (P0DPI0 2-448 limits assumed): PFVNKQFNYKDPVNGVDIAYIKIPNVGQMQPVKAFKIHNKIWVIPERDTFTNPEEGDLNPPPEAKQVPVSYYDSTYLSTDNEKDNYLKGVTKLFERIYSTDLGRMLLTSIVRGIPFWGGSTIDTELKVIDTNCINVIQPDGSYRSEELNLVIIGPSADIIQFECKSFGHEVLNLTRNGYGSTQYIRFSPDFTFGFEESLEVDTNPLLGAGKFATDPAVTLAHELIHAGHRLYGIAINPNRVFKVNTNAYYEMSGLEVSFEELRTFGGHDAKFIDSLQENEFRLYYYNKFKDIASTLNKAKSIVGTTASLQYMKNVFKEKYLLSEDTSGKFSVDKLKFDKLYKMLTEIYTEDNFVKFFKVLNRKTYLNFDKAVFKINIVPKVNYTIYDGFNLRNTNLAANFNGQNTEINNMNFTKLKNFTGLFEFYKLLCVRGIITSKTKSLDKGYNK

Sequence of Botulinum neurotoxin type F (P30996 1-436 limits assumed): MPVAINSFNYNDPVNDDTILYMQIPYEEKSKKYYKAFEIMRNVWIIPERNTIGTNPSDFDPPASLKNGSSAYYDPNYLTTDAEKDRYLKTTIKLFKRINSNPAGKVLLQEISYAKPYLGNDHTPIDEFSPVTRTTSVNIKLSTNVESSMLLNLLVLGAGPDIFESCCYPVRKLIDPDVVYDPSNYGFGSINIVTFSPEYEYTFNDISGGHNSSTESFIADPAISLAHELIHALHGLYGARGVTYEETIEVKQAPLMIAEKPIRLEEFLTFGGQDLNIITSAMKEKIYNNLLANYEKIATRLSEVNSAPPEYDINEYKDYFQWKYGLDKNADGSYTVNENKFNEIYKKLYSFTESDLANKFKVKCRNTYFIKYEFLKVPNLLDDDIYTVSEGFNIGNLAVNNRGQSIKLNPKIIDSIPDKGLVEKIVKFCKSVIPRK
Sequence of Methionine aminopeptidase 2 (P50579 whole entry): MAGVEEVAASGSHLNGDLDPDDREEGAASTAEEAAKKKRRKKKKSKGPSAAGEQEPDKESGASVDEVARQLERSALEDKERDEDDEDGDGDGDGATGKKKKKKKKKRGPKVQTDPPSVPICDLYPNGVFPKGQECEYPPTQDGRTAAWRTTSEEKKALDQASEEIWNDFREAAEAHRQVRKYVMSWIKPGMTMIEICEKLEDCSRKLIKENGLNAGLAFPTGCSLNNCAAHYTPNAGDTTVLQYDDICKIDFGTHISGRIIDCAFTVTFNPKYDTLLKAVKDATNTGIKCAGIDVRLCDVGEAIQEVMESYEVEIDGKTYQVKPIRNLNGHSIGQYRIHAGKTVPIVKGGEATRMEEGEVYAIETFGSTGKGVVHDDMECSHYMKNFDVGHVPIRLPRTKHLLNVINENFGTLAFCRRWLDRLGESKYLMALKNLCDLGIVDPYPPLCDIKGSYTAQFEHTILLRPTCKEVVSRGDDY

Nc1ccc2cccc(O)c2n1
MIC [1]: 4.6 µM (≈ 0.737 µg/mL)

O=C(O)c1ccc(O)c2ncccc12
MIC [2]: 1250 µM (≈ 236 µg/mL)

O=C(O)c1ccc2cccc(O)c2n1
IC50 [3]: 10 µM | IC50 [4]: > 10 µM

Oc1c(Br)cc(Cl)c2cccnc12
IC50 [5]: 4.92 µM | MIC [6]: 2.51 µM (≈ 0.649 µg/mL) | IC50 [7]: 112 µM | MIC [1]: 19.3 µM (≈ 5 µg/mL) | IC50 [8]: 5.44 µM | IC50 [9]: 105 µM

O=[N+]([O-])c1cc(CN2CCN(c3ccccc3)CC2)c(O)c2ncccc12
MBC [10]: 25 µM (≈ 9.11 µg/mL)

Oc1cccc2ccc(/C=C/c3ccccc3Cl)nc12
MIC [1]: 5.8 µM (≈ 1.63 µg/mL)

Cc1ccnc(NC(c2ccccc2)c2ccc3cccnc3c2O)c1 (stereo not given)
IC50 [11]: 14.9 µM

O=C(O)c1ccc(NC(c2ccccc2)c2ccc3cccnc3c2O)cc1 (stereo not given)
IC50 [11]: 30.5 µM

O=[N+]([O-])c1cc(CN2CCN(c3ccc(F)cc3)CC2)c(O)c2ncccc12
MBC [10]: 3.13 µM (≈ 1.2 µg/mL)

O=[N+]([O-])c1cc(CN2CCC(c3ccccc3)C2)c(O)c2ncccc12 (stereo not given)
MBC [10]: 12.5 µM (≈ 4.37 µg/mL)

Oc1cccc2ccc(Nc3ccccc3)nc12
MIC [1]: > 20 µM

Oc1c(Cl)cc(Cl)c2ccc(/C=C/c3ccc(/C=C/c4ccc5c(Cl)cc(Cl)c(O)c5n4)cc3)nc12
MIC [1]: > 72.2 µM

O=S(=O)(O)c1ccc(O)c2ncccc12
MIC [2]: 4.44 µM (≈ 1 µg/mL) | MIC [12]: 4.44 µM (≈ 1 µg/mL)

O=C(Nc1cccc(Cl)c1)c1ccc2cccc(O)c2n1
MIC [1]: 50 µM (≈ 14.9 µg/mL)

O=C(Nc1ccccc1Br)c1ccc2cccc(O)c2n1
MIC [1]: 23 µM (≈ 7.89 µg/mL)

O=C(Nc1cccc(C(F)(F)F)c1)c1ccc2cccc(O)c2n1
MIC [1]: 24 µM (≈ 7.97 µg/mL)

O=C(Nc1ccc(C(F)(F)F)cc1)c1ccc2cccc(O)c2n1
MIC [1]: 24 µM (≈ 7.97 µg/mL)

O=C(Nc1ccccc1[N+](=O)[O-])c1ccc2cccc(O)c2n1
MIC [1]: 97 µM (≈ 30 µg/mL)

O=C(O)c1ccc2cccnc2c1O
IC50 [13]: 0.76 µM | IC50 [14]: 0.74 µM

CCOC(=O)c1cc2c(Br)cc(Br)c(O)c2nc1C
IC50 [15]: > 100 µM

Oc1cccc2ccc(N3CCCCC3)nc12
MIC [1]: > 20 µM

Oc1c(Br)cc(Br)c2ccc(CNc3ccc(F)cc3)nc12
MBEC [16]: 1 µM | MBEC [17]: 93.8 µM | MBEC [18]: 5.9 µM

Cc1ccc2ccc(C(=O)NCc3ccc(F)cc3)c(O)c2n1
MIC [1]: > 500 µM

COc1ccc(CNC(=O)c2ccc3ccc(C)nc3c2O)cc1
MIC [1]: > 500 µM

Cc1ccc2ccc(C(=O)NCc3ccccc3)c(O)c2n1
MIC [1]: > 500 µM

Cc1ccc(CNC(=O)c2ccc3ccc(C)nc3c2O)cc1
MIC [1]: > 500 µM

COc1cccc(/C=C/c2ccc3cccc(O)c3n2)c1
MIC [1]: > 200 µM

Oc1ccc(C(F)(F)F)c2cccnc12
Ki [19]: 0.37 µM

O=C(NOCc1ccccc1)c1ccc2cccc(O)c2n1
IC50 [20]: ≥ 1 µM | IC50 [4]: 0.011 µM

CC(=O)N1CCN(c2nc(Nc3ccc(C#N)c(C(F)(F)F)c3)nc(Oc3cccc4cccnc34)n2)CC1
MIC [21]: 9.8 µM (≈ 5.24 µg/mL) | MIC [1]: 117 µM (≈ 62.5 µg/mL)

COc1cc(OC)nc(Nc2ccc3cccnc3c2O)n1
MIC [22]: 3.35 µM (≈ 0.999 µg/mL) | MIC [23]: 3.35 µM (≈ 0.999 µg/mL)

O=S(=O)(NC(c1cccc(F)c1)c1cc(Cl)c2cccnc2c1O)c1ccccc1 (stereo not given)
IC50 [24]: 5.8 µM

O=C(NCCO[C@H]1O[C@H](CO)[C@@H](O)[C@H](O)[C@@H]1O)c1ccc2cccnc2c1O
MIC [2]: 10000 µM (≈ 3940 µg/mL)

NS(=O)(=O)c1cc(Cl)c2cccnc2c1O
Ki [19]: > 100 µM

O=C(O)c1ccc2ccc(/C=C/c3ccccc3Cl)nc2c1O
MIC [1]: 120 µM (≈ 39.1 µg/mL)

Clc1cc2c(c3ncccc13)OCN(C1CCCCC1)C2
IC50 [5]: 3.76 µM | IC50 [8]: 4.3 µM
